Square brackets hold non-standard residues; d marks the D form. Peptide text beside a SMILES is read from it. * marks the point of attachment. X1 = CC(=O)N[C@@H]1[C@@H](O[C@@H]2O[C@H](CO)[C@H](O)[C@H](O)[C@H]2O)[C@@H](O)[C@@H](CO[C@@H]2O[C@H](CO)[C@@H](O[C@@H]3O[C@H](CO)[C@H](O)[C@H](O[C@]4(C(=O)O)C[C@H](O)[C@@H](NC(C)=O)[C@H]([C@H](O)[C@H](O)CO)O4)[C@H]3O)[C@H](O[C@@H]3O[C@@H](C)[C@@H](O)[C@@H](O)[C@@H]3O)[C@H]2NC(C)=O)O[C@@H]1*; Phe(4-CH2SO3H) = N[C@@H](Cc1ccc(CS(=O)(=O)O)cc1)C(=O)O; Mca = COc1ccc2c(CC(=O)*)cc(=O)oc2c1

1 compound from patent US10253071B2, “Selectin inhibitors, composition, and uses related thereto” (Beth Israel Deaconess Medical Center, Inc., priority 2014, dated 2019) can be followed below.

Assay [1] deals with leukocyte binding to microvascular endothelium. Description: Intravital microscopy of murine cremaster muscle microcirculation, leukocyte rolling. The class given is in vivo. As to conditions: mouse cremaster venules 30 to 40 μm, 4 μmol/kg IV, saline 40.8±1.7, p≤0.01. Here is the method: Intravital microscopy was used to determine the ability of GsnP-6 to inhibit leukocyte binding to microvascular endothelium. PSGL-1 expressed on circulating leukocytes binds to selectins on endothelium; inducing leukocyte rolling to facilitate subsequent tight binding to integrin receptors. Inhibition of this interaction leads to an increase in rolling velocity. Intravital microscopy of the murine cremaster muscle microcirculation was performed on venules with a diameter of 30 to 40 μm. Seven venules per mouse (n=4, saline (control); n=3, GSnP-6, 4 μmol/kg IV) were analyzed and the velocities of 5 to 10 rolling leukocytes were determined in each venule by individually tracking leukocyte distance/time (μm/s). A significant increase in mean rolling velocity was observed after intravenous administration of GSnP-6 (FIG. GsnP-6: 74.9±3.4 μm/s, saline: 40.8±1.7 μm/s; p≤0.01).

Assay [2] has as its target T1, Recombinant mouse P-selectin Fc chimera (Mus musculus, UniProt Q01102).
T1 sequence (Q01102 42-768): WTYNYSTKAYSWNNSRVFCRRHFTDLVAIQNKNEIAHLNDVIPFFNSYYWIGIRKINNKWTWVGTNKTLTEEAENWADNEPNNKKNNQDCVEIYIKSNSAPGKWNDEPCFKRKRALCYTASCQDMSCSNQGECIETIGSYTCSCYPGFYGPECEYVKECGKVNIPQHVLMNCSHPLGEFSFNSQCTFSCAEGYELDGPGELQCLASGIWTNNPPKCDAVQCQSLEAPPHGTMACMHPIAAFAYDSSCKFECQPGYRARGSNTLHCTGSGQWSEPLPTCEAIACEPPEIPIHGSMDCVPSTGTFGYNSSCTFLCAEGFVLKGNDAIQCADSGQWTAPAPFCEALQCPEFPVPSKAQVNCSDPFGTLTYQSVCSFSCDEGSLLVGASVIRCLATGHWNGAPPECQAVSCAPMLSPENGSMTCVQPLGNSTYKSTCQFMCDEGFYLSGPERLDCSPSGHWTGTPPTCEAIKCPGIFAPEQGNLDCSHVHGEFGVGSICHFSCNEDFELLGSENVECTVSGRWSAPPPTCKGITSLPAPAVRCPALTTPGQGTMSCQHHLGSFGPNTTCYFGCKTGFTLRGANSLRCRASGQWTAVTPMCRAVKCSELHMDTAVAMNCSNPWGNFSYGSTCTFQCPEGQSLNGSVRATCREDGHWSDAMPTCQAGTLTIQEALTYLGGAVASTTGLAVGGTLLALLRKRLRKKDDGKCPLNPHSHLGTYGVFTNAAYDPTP
Description: Flow cytometry, inhibition of mouse P-selectin Fc chimera binding to murine neutrophils. The conditions noted are these: murine PMN; chimera 2 μg/mL; read-out: IC50, P-selectin dependent interactions, murine PMN. Format: cell-based. Here is the method:
Flow cytometry was used to characterize the ability of GSnP-6 to block binding of selectin-IgG chimeras to murine and human leukocytes. Recombinant mouse P- or L-selectin Fc chimera (2 μg/mL) was incubated with murine neutrophils and GSnP-6 (0-30 μM). Likewise, recombinant human P-selectin or L-selectin Fc chimera were incubated with human peripheral blood neutrophils and monocytes, as well as the human U937 cell line in the presence of GSnP-6 (0-30 μM). Binding of selectin-IgG chimeras was detected with PE-conjugated anti-IgG antibody, quantified as mean fluorescent intensity, and plotted as percent inhibition. Specificity was confirmed with selectin-specific blocking antibodies.

As to `COc1ccc2c(CC(=O)NCCCC[C@H](N)C(=O)N[C@@H](CCC(=O)O)C(=O)N[C@@H](Cc3ccc(CS(=O)(=O)O)cc3)C(=O)N[C@@H](CCC(=O)O)C(=O)N[C@@H](Cc3ccc(CS(=O)(=O)O)cc3)C(=O)N[C@@H](CC(C)C)C(=O)N[C@@H](CC(=O)O)C(=O)N[C@@H](Cc3ccc(CS(=O)(=O)O)cc3)C(=O)N[C@@H](CC(=O)O)C(=O)N[C@@H](Cc3ccccc3)C(=O)N[C@@H](CC(C)C)C(=O)N3CCC[C@H]3C(=O)N[C@@H](CCC(=O)O)C(=O)N[C@H](C(=O)N[C@@H](CCC(=O)O)C(=O)N3CCC[C@H]3C(=O)N[C@@H](CC(C)C)C(=O)O)[C@@H](C)O[C@H]3O[C@H](CO[C@@H]4O[C@H](CO)[C@@H](O[C@@H]5O[C@H](CO)[C@H](O)[C@H](O[C@]6(C(=O)O)C[C@H](O)[C@@H](NC(C)=O)[C@H]([C@H](O)[C@H](O)CO)O6)[C@H]5O)[C@H](O[C@@H]5O[C@@H](C)[C@@H](O)[C@@H](O)[C@@H]5O)[C@H]4NC(C)=O)[C@H](O)[C@H](O[C@@H]4O[C@H](CO)[C@H](O)[C@H](O)[C@H]4O)[C@H]3NC(C)=O)cc(=O)oc2c1` [GSnP-6] (H-K(Mca)E[Phe(4-CH2SO3H)]E[Phe(4-CH2SO3H)]LD[Phe(4-CH2SO3H)]DFLPET(X1)EPL-OH), the “mean leukocyte rolling velocity” value in assay [1] is on record as “increased leukocyte rolling velocity”; in assay [1] (listed as GsnP-6) it was 74.9±3.4 μm/s. The concentration for half-maximal inhibition (IC50) in assay [2] was approximately 15 µM.

For orientation: IC50 means the concentration that gives 50% inhibition.
